From US20180194762A1 (Pharmacyclics LLC, priority 2017, published 2018)
pIC50: −log10 of the molar value.

Columns and labels:
Type in all cases: biochemical
[1] = target: T1, TEC (Homo sapiens, UniProt P42680); assay: Inhibition of a panel of kinases (in vitro HotSpot kinase assay, 33P-ATP, 1 μM ATP); conditions: for pIC50: HotSpot kinase assay, 1 μM ATP; for TEC/Btk: ratio of TEC IC50 to Btk IC50 (selectivity)
T1 sequence (P42680 1-631): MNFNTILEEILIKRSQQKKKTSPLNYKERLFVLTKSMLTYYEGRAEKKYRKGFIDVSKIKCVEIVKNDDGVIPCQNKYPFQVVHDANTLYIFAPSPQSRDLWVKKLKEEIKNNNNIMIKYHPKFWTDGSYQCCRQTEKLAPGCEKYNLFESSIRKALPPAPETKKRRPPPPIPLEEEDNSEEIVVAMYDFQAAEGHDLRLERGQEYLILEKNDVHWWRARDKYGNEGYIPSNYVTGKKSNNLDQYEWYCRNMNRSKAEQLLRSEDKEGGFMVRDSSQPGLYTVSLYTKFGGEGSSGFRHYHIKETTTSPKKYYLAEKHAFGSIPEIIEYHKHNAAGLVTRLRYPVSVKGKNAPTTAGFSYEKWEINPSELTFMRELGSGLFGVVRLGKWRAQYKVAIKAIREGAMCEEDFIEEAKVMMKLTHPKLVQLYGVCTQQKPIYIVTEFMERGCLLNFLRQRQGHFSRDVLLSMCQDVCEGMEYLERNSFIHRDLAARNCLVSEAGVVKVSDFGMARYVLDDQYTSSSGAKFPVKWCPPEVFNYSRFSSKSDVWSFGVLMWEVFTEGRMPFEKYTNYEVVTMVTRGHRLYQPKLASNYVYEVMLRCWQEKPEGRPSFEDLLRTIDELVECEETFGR
How it was run: (§1)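 Purified kinase enzymes were incubated with an appropriate substrate and 33P-labelled ATP at 1 μM ATP. Inhibition was measured radiometrically from incorporation of the 33P label.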

[2] = target: T2, panel of kinases (Homo sapiens, UniProt P51813); assay: Inhibition of a panel of kinases (in vitro HotSpot kinase assay, 33P-ATP, 1 μM ATP), other kinases; conditions: BMX wild-type, read-out: BMX-WT IC50
T2 sequence (P51813 1-675): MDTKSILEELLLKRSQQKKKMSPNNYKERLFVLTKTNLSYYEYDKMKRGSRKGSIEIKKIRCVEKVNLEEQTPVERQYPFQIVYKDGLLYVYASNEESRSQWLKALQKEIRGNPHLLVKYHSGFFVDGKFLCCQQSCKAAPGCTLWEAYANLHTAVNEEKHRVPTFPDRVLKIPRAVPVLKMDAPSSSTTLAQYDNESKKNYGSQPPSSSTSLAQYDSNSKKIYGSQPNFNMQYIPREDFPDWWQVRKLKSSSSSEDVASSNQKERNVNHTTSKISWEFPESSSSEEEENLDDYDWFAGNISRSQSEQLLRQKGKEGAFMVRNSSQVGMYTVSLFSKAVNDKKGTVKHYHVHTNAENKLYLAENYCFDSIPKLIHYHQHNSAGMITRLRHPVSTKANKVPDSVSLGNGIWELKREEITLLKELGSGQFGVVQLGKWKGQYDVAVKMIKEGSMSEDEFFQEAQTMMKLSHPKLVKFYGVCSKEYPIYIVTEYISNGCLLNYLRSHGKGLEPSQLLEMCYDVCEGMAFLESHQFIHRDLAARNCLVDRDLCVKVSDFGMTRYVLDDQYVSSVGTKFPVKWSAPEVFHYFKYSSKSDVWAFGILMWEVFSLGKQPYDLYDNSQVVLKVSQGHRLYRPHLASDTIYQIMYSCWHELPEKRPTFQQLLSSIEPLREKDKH
How it was run: as §1

[3] = target: T3, Btk (Homo sapiens, UniProt Q06187); assay: Btk in vitro inhibitory activity (one of Method A TR-FRET, Method B electrophoretic mobility shift, Method C radiometric filter binding); conditions: wild-type Btk; read-out: Btk-WT IC50
T3 construct: purified from insect cells as a full-length construct containing a N-terminal 6X-His tag; His6 (N); made in house; host or cells: insect cells (Method C)
T3 sequence (Q06187 whole entry): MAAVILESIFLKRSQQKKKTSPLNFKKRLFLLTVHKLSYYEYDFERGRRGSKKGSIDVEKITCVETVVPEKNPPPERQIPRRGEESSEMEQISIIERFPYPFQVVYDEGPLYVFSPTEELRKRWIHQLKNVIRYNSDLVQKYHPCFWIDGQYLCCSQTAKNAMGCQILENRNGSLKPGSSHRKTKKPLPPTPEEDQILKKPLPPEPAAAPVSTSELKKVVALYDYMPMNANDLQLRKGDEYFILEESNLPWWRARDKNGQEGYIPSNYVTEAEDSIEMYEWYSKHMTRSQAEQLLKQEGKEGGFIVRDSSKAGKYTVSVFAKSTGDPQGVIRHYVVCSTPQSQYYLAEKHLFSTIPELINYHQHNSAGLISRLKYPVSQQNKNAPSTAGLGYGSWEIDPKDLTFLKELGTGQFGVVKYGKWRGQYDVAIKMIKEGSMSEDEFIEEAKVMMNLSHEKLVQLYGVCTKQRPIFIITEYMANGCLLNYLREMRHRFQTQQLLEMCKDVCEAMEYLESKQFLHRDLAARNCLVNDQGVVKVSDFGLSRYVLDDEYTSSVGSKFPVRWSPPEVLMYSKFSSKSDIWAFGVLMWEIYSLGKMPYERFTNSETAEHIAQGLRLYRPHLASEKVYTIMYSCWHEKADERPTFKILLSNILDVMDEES
How it was run: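 Method A: TR-FRET with 0.5 nM Btk at [ATP]=Km, EDTA-quenched, 665/615 nm ratio; Ki(app) converted to IC50. Method B: 1 nM full-length His6 human BTK, 1 μM FAM peptide, pH 7.5, mobility-shift product/sum ratio, 12-point 4-parameter fit. Method C: radiometric filter binding, 8 nM His-tagged BTK, 0.2 mg/mL poly-Glu-Tyr.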

| SMILES | pIC50 [1] | TEC/Btk [1] | pIC50 [2] | pIC50 [3] |
| --- | --- | --- | --- | --- |
| C[C@H]1CC[C@@H](Nc2n[nH]c3nccc(-c4ccc(CNC(=O)c5nc(C(C)(C)C)no5)c(F)c4)c23)CN1C(=O)n1ccnc1 [Example 196, 3-tert-butyl-N-{[2-fluoro-4-(3-{[(3R,6S)-1-(1H-imidazole-1-carbonyl)-6-methylpiperidin-3-yl]amino}-1H-pyrazolo[3,4-b]pyridin-4-yl)phenyl]methyl}-1,2,4-oxadiazole-5-carboxamide] | 5.80 | 816 | 5.46 | 8.71 |
| CC(=O)N[C@@H]1CCN(c2n[nH]c3nccc(-c4ccc(CNC(=O)c5nc(C(C)C)no5)c(F)c4)c23)C1 [Example 200, N-[(4-{3-[(3R)-3-acetamidopyrrolidin-1-yl]-1H-pyrazolo[3,4-b]pyridin-4-yl}-2-fluorophenyl)methyl]-3-(propan-2-yl)-1,2,4-oxadiazole-5-carboxamide] | 5.83 | 343 | 5.85 | 8.37 |
| C[C@@H](NC(=O)c1nc(C(C)(C)C)no1)c1ccc(-c2ccnc3[nH]nc(NC4CCCC4)c23)cc1 [Example 201, 3-tert-butyl-N-[(1R)-1-{4-[3-(cyclopentylamino)-1H-pyrazolo[3,4-b]pyridin-4-yl]phenyl}ethyl]-1,2,4-oxadiazole-5-carboxamide] | 5.08 | 818 | 5.17 | 7.99 |
| C[C@@H](NC(=O)c1cc(C(C)(C)O)on1)c1ccc(-c2ccnc3[nH]nc(NC4CCN(S(C)(=O)=O)CC4)c23)cc1 [Example 203, 5-(2-hydroxypropan-2-yl)-N-{(1R)-1-[4-(3-{[1-(methanesulfonyl)piperidin-4-yl]amino}-1H-pyrazolo[3,4-b]pyridin-4-yl)phenyl]ethyl}-1,2-oxazole-3-carboxamide] | < 5.00 | >10000 | < 5.00 | < 6.00 |
| CC(=O)N1CCC(Nc2n[nH]c3nccc(-c4ccc([C@@H](C)NC(=O)c5cc(C(C)(C)O)on5)cc4)c23)CC1 [Example 204, N-[(1R)-1-(4-{3-[(1-acetylpiperidin-4-yl)amino]-1H-pyrazolo[3,4-b]pyridin-4-yl}phenyl)ethyl]-5-(2-hydroxypropan-2-yl)-1,2-oxazole-3-carboxamide] | < 5.00 | >10000 | < 5.00 | < 6.00 |
| CC(C)(C)c1noc(C(=O)NCc2ccc(-c3ccnc4[nH]nc(N5CCC(NC(=O)C6CC6)CC5)c34)cc2F)n1 [Example 207, 3-tert-butyl-N-{[4-(3-{4-[(cyclopropanecarbonyl)amino]piperidin-1-yl}-1H-pyrazolo[3,4-b]pyridin-4-yl)-2-fluorophenyl]methyl}-1,2,4-oxadiazole-5-carboxamide] | 6.09 | 2173 | 5.91 | 9.43 |
| CC(C)(C)c1noc(C(=O)NCc2ccc(-c3ccnc4[nH]nc(N5CCC(NC(=O)c6ccccc6)CC5)c34)cc2F)n1 [Example 208, N-({4-[3-(4-benzamidopiperidin-1-yl)-1H-pyrazolo[3,4-b]pyridin-4-yl]-2-fluorophenyl}methyl)-3-tert-butyl-1,2,4-oxadiazole-5-carboxamide] | 5.77 | 2599 | 5.68 | 9.18 |
| CCNC(=O)N1C[C@H](Nc2n[nH]c3nccc(-c4ccc(CNC(=O)c5nc(C(C)(C)C)no5)c(F)c4)c23)CC[C@@H]1C [Example 209, (2S,5R)-5-{[4-(4-{[(3-tert-butyl-1,2,4-oxadiazole-5-carbonyl)amino]methyl}-3-fluorophenyl)-1H-pyrazolo[3,4-b]pyridin-3-yl]amino}-N-ethyl-2-methylpiperidine-1-carboxamide] | 6.04 | 718 | 5.66 | 8.90 |
| C[C@@H](NC(=O)c1nc(C(C)(C)C)no1)c1ccc(-c2ccnc3[nH]nc(N4CCOCC4)c23)cc1 [Example 219, 3-tert-butyl-N-[(1R)-1-{4-[3-(morpholin-4-yl)-1H-pyrazolo[3,4-b]pyridin-4-yl]phenyl}ethyl]-1,2,4-oxadiazole-5-carboxamide] | 6.11 | 4199 | 6.24 | 9.73 |
| C[C@@H](NC(=O)c1nc(C(C)(C)C)no1)c1ccc(-c2ccnc3[nH]nc(N4CCS(=O)(=O)CC4)c23)cc1 [Example 220, 3-tert-butyl-N-[(1R)-1-{4-[3-(1,1-dioxo-1λ^6-thiomorpholin-4-yl)-1H-pyrazolo[3,4-b]pyridin-4-yl]phenyl}ethyl]-1,2,4-oxadiazole-5-carboxamide] | 5.05 | 6013 | 5.24 | 8.83 |
| CC(C)(C)c1noc(C(=O)NCc2ccc(-c3ccnc4[nH]nc(N5CCC(NS(=O)(=O)C6CC6)CC5)c34)cc2F)n1 [Example 224, 3-tert-butyl-N-{[4-(3-{4-[(cyclopropanesulfonyl)amino]piperidin-1-yl}-1H-pyrazolo[3,4-b]pyridin-4-yl)-2-fluorophenyl]methyl}-1,2,4-oxadiazole-5-carboxamide] | 6.54 | 3121 | 6.60 | 10.03 |
| COC(=O)N1C[C@H](Nc2n[nH]c3nccc(-c4ccc(CNC(=O)c5noc(C(C)(C)C)n5)c(F)c4)c23)CC[C@@H]1C [Example 226, methyl (2S,5R)-5-{[4-(4-{[(5-tert-butyl-1,2,4-oxadiazole-3-carbonyl)amino]methyl}-3-fluorophenyl)-1H-pyrazolo[3,4-b]pyridin-3-yl]amino}-2-methylpiperidine-1-carboxylate] | 5.86 | 926 | 5.68 | 8.83 |
| C[C@H]1CC[C@@H](Nc2n[nH]c3nccc(-c4ccc(CNC(=O)c5noc(C(C)(C)C)n5)c(F)c4)c23)CN1C(=O)CO [Example 227, 5-tert-butyl-N-{[2-fluoro-4-(3-{[(3R,6S)-1-(hydroxyacetyl)-6-methylpiperidin-3-yl]amino}-1H-pyrazolo[3,4-b]pyridin-4-yl)phenyl]methyl}-1,2,4-oxadiazole-3-carboxamide] | 6.69 | 448 | 6.15 | 9.34 |
| CC(=O)N1C[C@H](Nc2n[nH]c3nccc(-c4ccc(CNC(=O)c5noc(C(C)(C)C)n5)c(F)c4)c23)CC[C@@H]1C [Example 229, N-{[4-(3-{[(3R,6S)-1-acetyl-6-methylpiperidin-3-yl]amino}-1H-pyrazolo[3,4-b]pyridin-4-yl)-2-fluorophenyl]methyl}-5-tert-butyl-1,2,4-oxadiazole-3-carboxamide] | 6.53 | 778 | 6.27 | 9.42 |
| C[C@H]1CC[C@@H](Nc2n[nH]c3nccc(-c4ccc(CNC(=O)c5noc(C(C)(C)C)n5)c(F)c4)c23)CN1C(=O)N1CCOCC1 [Example 230, 5-tert-butyl-N-{[2-fluoro-4-(3-{[(3R,6S)-6-methyl-1-(morpholine-4-carbonyl)piperidin-3-yl]amino}-1H-pyrazolo[3,4-b]pyridin-4-yl)phenyl]methyl}-1,2,4-oxadiazole-3-carboxamide] | 6.33 | 1146 | 6.07 | 9.39 |
